In ChEMBL document CHEMBL1201862, “PubChem BioAssay data set” (2004) one finds IC50 and EC50 data, which are given here for three compounds.

Active and inactive are the calls of the source.

A word on the IC50: it is the concentration that gives 50% inhibition. What is called EC50 is the concentration at which the effect is half-maximal.

Assay [1] concerns the target T1, SUMO-activating enzyme (Homo sapiens, UniProt Q9UBT2). Kind of assay: blockers of UBC9-mediated SUMO conjugation – biochemical, AlphaScreen, SUMOylation inhibitor project, confirmation (AID 2018). The format is functional. A general note: Alpha assays give light when donor and acceptor beads are brought close together.
Assay [2] has as its target Large T antigen (Simian virus 40, UniProt P03070). The assay is classed as functional, Betapolyomavirus macacae.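 Also: Confirmatory-stage PubChem screen for compounds that inhibit SV40 T antigen.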
Assay [3] has as its target T1, SUMO-activating enzyme. Kind of assay: blockers of SAE1/SAE2–UBC9 SUMO transfer – biochemical, HTRF, uHTS, primary screen (AID 2006). The assay is classed as protein-complex assay. A general note: TR-FRET usually uses a lanthanide donor and a delayed reading to cut background.
For assay [4], the target named is Intestinal-type alkaline phosphatase (Homo sapiens, UniProt P09923). As to the kind of experiment: activation of human intestinal alkaline phosphatase – biochemical, dose response (AID 488873). The format is functional.
Assay [5] has as its target Intestinal-type alkaline phosphatase (Mus musculus, UniProt P24822). As to the kind of experiment: mouse intestinal alkaline phosphatase activators, dose response, biochemical, luminescence, uHTS hits (AID 488783). The format is functional.
Assay [6] has as its target T2, Alkaline phosphatase, tissue-nonspecific isozyme (Homo sapiens, UniProt P05186).
T2 sequence (P05186 whole entry): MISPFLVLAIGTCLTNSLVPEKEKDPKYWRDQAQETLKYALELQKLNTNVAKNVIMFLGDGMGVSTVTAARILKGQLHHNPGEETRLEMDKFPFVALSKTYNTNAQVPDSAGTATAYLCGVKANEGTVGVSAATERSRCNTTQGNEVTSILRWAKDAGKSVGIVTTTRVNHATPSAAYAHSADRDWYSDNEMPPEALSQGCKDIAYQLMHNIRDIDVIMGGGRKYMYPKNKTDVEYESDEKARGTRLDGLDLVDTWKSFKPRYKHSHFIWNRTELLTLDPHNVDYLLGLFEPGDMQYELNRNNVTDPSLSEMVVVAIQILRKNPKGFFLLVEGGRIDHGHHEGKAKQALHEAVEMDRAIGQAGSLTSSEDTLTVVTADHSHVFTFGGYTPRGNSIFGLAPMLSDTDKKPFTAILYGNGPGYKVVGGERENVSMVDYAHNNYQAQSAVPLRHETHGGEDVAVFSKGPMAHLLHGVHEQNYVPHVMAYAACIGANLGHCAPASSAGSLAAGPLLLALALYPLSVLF
As to the kind of experiment: activation of tissue-nonspecific alkaline phosphatase – biochemical, TNAP isozyme, mouse IAP uHTS hits, selectivity assay for mouse IAP activator project, dose response (AID 488880). The format is functional.

The target of assay [7] is T3, Kappa-type opioid receptor (Homo sapiens, UniProt P41145). As to the kind of experiment: kappa opioid receptor activation by imaging – image-based, set 3, SAR follow-up (AID 488833). The format is functional.
In assay [8] the target is Mu-type opioid receptor (Homo sapiens, UniProt P35372). As to the kind of experiment: SAR Analysis of Agonists of the MOR Receptor using an Image-Based Assay - Set 3. [Related pubchem assays (depositor defined):AID1777, AID1785, AID1786, AID1966, AID2133, AID2136, AID2284, AID2285, AID2352]. The format is functional.
Assay [9] has as its target Delta-type opioid receptor (Homo sapiens, UniProt P41143). As to the kind of experiment: SAR Analysis of Agonists of the DOR Receptor using an Image-Based Assay - Set 3. [Related pubchem assays (depositor defined):AID1777, AID1786]. The assay is classed as functional.
The target of assay [10] is T3, Kappa-type opioid receptor. Kind of assay: SAR analysis of small molecule agonists of the kappa opioid receptor via a luminescent beta-arrestin assay - Set 3. [Related pubchem assays (depositor defined):AID1777, AID1785, AID1786, AID1966, AID2133, AID2136, AID2284, AID2500]. The assay is classed as functional.
In assay [11] the target is T4, Tyrosine-protein phosphatase non-receptor type 22 (Homo sapiens, UniProt Q9Y2R2).
T4 sequence (Q9Y2R2 whole entry): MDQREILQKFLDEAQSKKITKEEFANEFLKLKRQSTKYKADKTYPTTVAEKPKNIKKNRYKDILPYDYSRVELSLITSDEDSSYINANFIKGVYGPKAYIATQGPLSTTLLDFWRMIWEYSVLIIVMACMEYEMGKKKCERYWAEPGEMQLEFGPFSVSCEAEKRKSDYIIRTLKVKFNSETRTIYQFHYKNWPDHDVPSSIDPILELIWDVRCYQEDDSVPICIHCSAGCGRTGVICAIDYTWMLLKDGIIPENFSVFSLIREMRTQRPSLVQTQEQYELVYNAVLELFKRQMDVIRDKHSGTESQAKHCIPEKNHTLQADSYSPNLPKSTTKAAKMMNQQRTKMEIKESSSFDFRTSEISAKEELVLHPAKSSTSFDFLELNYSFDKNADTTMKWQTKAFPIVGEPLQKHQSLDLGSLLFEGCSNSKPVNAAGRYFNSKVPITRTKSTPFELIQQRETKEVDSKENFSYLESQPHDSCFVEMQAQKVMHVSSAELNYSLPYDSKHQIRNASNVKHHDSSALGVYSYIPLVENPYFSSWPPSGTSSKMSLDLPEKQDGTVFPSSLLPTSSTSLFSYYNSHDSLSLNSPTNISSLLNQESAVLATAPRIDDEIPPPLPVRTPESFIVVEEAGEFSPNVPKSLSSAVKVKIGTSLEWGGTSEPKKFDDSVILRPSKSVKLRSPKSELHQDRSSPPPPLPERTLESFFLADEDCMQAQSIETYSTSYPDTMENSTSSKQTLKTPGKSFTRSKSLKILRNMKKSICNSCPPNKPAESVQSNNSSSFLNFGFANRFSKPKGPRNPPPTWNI
Kind of assay: SAR LYP1 Fluorescent Assay using pCAP substrate for In Vitro dose response studies - Set 2. [Related pubchem assays (depositor defined):AID1779, AID1784, AID2135, AID449727]. The assay is classed as functional.

The target in assay [12] is Tyrosine-protein phosphatase non-receptor type 12 (Homo sapiens, UniProt Q05209). Kind of assay: SAR Selectivity Analysis of small molecule inhibitors of PEST using pCAP in a fluorescence assay. [Related pubchem assays (depositor defined):AID1779, AID1784, AID2135]. The format is functional.
Assay [13] addresses T4, Tyrosine-protein phosphatase non-receptor type 22. Kind of assay: SAR LYP1 Fluorescent Assay using OMFP substrate for In Vitro dose response studies - Set 3. [Related pubchem assays (depositor defined):AID1779, AID1784, AID2140, AID2686]. The format is functional.
Assay [14] has as its target T5, Tyrosine-protein phosphatase non-receptor type 7 (Homo sapiens, UniProt P35236).
T5 sequence (P35236 whole entry): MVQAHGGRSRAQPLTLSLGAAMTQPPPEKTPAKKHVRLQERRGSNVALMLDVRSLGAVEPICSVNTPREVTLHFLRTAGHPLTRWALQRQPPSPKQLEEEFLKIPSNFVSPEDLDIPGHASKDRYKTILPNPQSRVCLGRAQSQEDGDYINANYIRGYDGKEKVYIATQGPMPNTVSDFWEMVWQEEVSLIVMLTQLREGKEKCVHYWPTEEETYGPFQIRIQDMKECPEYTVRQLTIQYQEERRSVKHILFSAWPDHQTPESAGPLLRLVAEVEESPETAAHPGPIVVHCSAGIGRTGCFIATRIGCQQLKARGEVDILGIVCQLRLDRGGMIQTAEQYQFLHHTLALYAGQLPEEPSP
As to the kind of experiment: inhibition of hematopoietic tyrosine phosphatase HePTP – biochemical, set 2, SAR follow-up (AID 449736). The assay is classed as functional.

The target of assay [15] is T4, Tyrosine-protein phosphatase non-receptor type 22. Kind of assay: inhibition of lymphoid tyrosine phosphatase LYP – biochemical, pCAP fluorogenic substrate, fluorescence, set 3, SAR follow-up (AID 449727). The assay is classed as functional.
For assay [16] the target is unchanged. Kind of assay: PubChem AID 2135.
The target is the same in assay [17]. As to the kind of experiment: PubChem AID 2140.
Assay [18] has the same target. Kind of assay: SAR LYP1 Fluorescent Assay using OMFP substrate for In Vitro dose response studies - Set 2. [Related pubchem assays (depositor defined):AID1779, AID1784, AID2140, AID449726, AID488869]. The format is functional.

T1 sequence (Q9UBE0 whole entry): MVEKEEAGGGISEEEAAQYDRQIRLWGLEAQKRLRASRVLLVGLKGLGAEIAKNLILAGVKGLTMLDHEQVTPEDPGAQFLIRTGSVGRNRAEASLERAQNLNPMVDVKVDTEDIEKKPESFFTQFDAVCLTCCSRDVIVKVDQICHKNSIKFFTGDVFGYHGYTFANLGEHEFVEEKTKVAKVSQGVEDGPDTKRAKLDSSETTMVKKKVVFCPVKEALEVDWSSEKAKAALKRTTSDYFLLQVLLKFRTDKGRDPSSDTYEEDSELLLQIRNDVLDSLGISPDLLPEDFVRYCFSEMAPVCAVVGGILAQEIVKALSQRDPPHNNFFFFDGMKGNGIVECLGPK
T1 sequence (Q9UBT2 whole entry): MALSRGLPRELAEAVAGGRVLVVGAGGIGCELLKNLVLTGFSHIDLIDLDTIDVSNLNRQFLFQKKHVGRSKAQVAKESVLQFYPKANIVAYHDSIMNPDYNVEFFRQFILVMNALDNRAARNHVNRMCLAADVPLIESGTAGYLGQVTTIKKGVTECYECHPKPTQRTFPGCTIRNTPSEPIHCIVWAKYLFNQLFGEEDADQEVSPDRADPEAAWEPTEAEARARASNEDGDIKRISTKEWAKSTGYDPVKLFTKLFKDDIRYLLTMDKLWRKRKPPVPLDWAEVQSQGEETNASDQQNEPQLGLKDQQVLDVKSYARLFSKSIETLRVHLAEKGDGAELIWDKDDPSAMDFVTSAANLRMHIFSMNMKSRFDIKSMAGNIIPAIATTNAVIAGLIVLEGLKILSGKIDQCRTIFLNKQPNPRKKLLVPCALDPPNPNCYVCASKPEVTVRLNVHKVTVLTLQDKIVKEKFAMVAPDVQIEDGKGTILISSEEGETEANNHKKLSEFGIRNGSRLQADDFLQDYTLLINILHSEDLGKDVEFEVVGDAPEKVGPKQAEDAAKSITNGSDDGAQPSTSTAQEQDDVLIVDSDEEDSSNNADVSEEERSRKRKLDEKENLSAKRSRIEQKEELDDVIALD
T3 sequence (P41145 whole entry): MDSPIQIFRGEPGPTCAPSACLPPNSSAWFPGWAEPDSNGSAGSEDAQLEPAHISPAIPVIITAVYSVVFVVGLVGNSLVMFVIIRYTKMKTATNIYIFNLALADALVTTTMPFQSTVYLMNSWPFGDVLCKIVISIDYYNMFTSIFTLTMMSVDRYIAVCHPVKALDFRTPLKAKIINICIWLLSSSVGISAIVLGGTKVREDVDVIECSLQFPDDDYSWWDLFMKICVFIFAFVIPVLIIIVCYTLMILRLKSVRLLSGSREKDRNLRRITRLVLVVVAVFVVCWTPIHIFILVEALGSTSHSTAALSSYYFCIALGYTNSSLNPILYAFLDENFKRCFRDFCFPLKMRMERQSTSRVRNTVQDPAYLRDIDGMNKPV
Sequence of Large T antigen (P03070 whole entry): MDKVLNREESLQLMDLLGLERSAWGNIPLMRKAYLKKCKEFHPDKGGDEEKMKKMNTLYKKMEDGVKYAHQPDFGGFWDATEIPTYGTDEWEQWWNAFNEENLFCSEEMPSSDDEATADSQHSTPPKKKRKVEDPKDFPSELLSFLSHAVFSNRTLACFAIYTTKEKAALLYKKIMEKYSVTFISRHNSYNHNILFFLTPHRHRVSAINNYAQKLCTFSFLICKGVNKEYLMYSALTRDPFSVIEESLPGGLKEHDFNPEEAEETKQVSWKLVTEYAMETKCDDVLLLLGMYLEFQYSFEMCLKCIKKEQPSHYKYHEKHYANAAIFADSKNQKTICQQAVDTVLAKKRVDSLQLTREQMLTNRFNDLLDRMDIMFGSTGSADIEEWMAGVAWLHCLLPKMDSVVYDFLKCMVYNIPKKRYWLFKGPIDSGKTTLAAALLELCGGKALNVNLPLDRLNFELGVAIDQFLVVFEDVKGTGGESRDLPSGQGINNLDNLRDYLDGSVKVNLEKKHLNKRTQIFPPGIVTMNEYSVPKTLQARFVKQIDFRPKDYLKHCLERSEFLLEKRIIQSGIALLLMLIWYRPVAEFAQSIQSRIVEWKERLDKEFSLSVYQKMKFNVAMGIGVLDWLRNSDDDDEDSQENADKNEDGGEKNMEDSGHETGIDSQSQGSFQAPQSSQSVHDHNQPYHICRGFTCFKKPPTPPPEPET
Sequence of Delta-type opioid receptor (P41143 whole entry): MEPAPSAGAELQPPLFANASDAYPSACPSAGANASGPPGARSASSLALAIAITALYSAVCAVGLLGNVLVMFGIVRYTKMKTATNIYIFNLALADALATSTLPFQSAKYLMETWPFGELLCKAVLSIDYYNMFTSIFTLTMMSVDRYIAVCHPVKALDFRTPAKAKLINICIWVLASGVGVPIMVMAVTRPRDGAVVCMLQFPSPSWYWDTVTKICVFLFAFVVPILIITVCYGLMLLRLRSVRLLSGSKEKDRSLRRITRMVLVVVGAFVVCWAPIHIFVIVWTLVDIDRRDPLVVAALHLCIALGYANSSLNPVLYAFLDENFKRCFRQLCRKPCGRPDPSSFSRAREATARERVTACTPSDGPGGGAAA
Sequence of Intestinal-type alkaline phosphatase (Homo sapiens, UniProt P09923) (P09923 whole entry): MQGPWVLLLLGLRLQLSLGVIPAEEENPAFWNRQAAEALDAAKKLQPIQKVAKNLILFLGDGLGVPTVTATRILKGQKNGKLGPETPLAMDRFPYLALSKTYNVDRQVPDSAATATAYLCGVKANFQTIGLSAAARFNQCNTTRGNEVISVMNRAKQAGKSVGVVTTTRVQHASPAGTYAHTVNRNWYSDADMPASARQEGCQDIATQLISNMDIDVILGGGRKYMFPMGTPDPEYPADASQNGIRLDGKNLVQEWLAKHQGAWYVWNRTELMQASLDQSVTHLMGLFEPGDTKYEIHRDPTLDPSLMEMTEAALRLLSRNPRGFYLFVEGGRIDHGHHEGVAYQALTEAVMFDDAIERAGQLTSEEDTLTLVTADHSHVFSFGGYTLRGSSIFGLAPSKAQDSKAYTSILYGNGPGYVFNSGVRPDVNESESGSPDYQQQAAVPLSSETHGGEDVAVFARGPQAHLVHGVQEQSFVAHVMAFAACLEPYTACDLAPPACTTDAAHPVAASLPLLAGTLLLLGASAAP
Sequence of Tyrosine-protein phosphatase non-receptor type 12 (Q05209 whole entry): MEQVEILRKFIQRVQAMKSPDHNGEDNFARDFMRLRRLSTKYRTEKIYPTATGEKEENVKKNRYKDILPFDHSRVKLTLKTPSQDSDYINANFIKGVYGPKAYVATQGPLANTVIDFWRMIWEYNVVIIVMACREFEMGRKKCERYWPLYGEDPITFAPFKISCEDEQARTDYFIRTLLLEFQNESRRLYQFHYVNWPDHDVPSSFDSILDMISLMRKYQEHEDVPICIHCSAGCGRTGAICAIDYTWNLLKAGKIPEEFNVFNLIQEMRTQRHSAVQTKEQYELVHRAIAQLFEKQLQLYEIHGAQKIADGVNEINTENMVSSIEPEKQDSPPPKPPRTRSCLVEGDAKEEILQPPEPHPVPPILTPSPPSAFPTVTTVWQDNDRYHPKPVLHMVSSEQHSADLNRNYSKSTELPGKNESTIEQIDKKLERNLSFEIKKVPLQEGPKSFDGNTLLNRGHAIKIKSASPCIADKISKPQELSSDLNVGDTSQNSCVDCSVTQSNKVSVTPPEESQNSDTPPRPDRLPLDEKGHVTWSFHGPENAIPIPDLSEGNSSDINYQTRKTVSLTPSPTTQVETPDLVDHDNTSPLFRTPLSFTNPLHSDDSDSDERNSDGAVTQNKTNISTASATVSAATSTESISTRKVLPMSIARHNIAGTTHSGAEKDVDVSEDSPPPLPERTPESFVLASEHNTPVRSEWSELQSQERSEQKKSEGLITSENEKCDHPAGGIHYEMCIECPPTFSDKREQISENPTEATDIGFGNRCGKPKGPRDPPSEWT
Sequence of Mu-type opioid receptor (P35372 whole entry): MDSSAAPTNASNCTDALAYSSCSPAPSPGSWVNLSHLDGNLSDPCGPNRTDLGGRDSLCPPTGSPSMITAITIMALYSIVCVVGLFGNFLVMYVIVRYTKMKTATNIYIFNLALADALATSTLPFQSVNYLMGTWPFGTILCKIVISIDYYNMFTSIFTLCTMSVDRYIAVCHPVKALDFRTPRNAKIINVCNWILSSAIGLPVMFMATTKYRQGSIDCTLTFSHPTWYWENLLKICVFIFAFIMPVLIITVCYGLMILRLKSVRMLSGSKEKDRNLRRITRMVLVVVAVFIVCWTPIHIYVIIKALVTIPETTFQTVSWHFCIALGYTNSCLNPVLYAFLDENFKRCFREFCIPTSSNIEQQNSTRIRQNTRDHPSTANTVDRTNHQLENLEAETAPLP
Sequence of Intestinal-type alkaline phosphatase (Mus musculus, UniProt P24822) (P24822 whole entry): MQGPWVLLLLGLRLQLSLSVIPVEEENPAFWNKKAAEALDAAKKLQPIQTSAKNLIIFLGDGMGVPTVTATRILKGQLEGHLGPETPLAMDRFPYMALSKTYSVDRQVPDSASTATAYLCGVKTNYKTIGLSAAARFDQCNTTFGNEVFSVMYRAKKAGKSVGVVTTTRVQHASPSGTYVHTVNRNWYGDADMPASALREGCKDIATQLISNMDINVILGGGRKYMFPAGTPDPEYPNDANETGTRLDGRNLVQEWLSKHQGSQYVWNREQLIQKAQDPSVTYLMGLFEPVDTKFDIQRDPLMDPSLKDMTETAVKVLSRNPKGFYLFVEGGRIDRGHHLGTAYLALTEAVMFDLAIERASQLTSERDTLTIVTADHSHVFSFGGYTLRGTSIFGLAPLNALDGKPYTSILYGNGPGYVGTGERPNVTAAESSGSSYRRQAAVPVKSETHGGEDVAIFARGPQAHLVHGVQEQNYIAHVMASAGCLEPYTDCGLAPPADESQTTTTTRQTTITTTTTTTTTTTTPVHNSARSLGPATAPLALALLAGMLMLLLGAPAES

For `O=C(CCN1C(=O)/C(=C/c2ccco2)SC1=S)Nc1ccc(C(=O)O)c(O)c1`, the IC50 was 1.46 µM (active) in [1], 56.1 µM (active) in assay [2] and 14.3 µM (active) in assay [3]. The EC50 is 66.2 µM (active) in assay [4], 7.32 µM (active) in assay [5] and 84.9 µM (active) in assay [6].
As for `N#Cc1ccc(CSc2nnc(-c3ccccn3)n2Cc2cccs2)cc1`, the EC50 in [7] was 3.52 µM (active); in assay [8] it was > 32 µM (inactive); in assay [9], > 64 µM (inactive); in assay [10], 4.64 µM (active).
On to `COc1cc(/C=C(\C#N)c2ccc(F)cc2)ccc1OCc1ccc(C(=O)O)cc1`, for which the IC50 was 33.9 µM (active) in assay [11]; 22.1 µM (active) in assay [12]; 94.2 µM (active) in assay [13]; 7.01 µM (active) in [14]; 61.2 µM (active) in [15]; 59.2 µM (active) in assay [16]. Also, the IC50 in assay [17] is > 100 µM (inactive); in [18], 35.5 µM (active).
